According to ChEMBL document CHEMBL3885861, “Open TG-GATES”:

Species: Rattus norvegicus
Test: Open TG-GATES - Regimen: Single
Type: toxicity, organism-based, Sprague-Dawley
Design: regimen Single, gender Male, age 6 weeks
Conditions: in vivo, ip, 400 mg/kg, route intraperitoneal injection, dose level High; for APTT / Bas / Eos / Fbg / Hb / Ht / Lym / MCH / MCHC / MCV / Mono / Neu / PT / Plat / RBC / Ret / WBC: tissue Blood; for KIDNEY_L / KIDNEY_R / KIDNEY_TOTAL: tissue Kidney; for LIVER: tissue Liver; for A/G / ALP / ALT / AST / BUN / CRE / Ca / Cl / DBIL / GLC / IP / K / LDH / Na / PL / RALB / TBIL / TC / TG / TP / gamma-GTP: tissue Plasma

`CC(C)=CC(=O)C=C(C)C` [PHORONE] gave a TERMINAL_BW (3 h) of 224 g, an APTT (3 h) of 18 s and a Bas (3 h) of 0%. For the same molecule, the Eos (3 h) was 0.8%, the Fbg (3 h) was 206.6 mg/dL and the Hb (3 h) was 13.7 g/dL. It also gave a Ht (3 h) of 40.8%, a Lym (3 h) of 81% and an MCH (3 h) of 21.9 pg. The MCHC (3 h) was 33.6%, the MCV (3 h) was 65.1 fL and the Mono (3 h) was 5%. The Neu (3 h) was 13.6%, the PT (3 h) was 12.9 s and the Plat (3 h) was 130 x10_4/uL. It also gave an RBC (3 h) of 626.2 x10_4/ul, a Ret (3 h) of 9.1% and a WBC (3 h) of 81.1 x10_2/uL. It also gave a KIDNEY_L (3 h) of 0.9 g, a KIDNEY_R (3 h) of 1 g and a KIDNEY_TOTAL (3 h) of 1.9 g. For the same molecule, the LIVER (3 h) was 9.4 g, the A/G (3 h) was 2.4 and the ALP (3 h) was 931 IU/L. For the same molecule, the ALT (3 h) was 51 IU/L, the AST (3 h) was 106.6 IU/L and the BUN (3 h) was 23.4 mg/dL. The CRE (3 h) was 1.1 mg/dL, the Ca (3 h) was 11 mg/dL and the Cl (3 h) was 99.4 meq/L. The DBIL (3 h) was 0.046 mg/dL, the GLC (3 h) was 292.8 mg/dL and the IP (3 h) was 9.8 mg/dL. For the same molecule, the K (3 h) was 4.6 meq/L, the LDH (3 h) was 282.6 IU/L and the Na (3 h) was 136 meq/L. It also gave a PL (3 h) of 110.6 mg/dL, an RALB (3 h) of 3.8 g/dL and a TBIL (3 h) of 0.9 mg/dL. It also gave a TC (3 h) of 67 mg/dL, a TG (3 h) of 18 mg/dL and a TP (3 h) of 5.4 g/dL. For the same molecule, the gamma-GTP (3 h) was 1.8 IU/L, the TERMINAL_BW (6 h) was 215 g and the APTT (6 h) was 17.1 s. It also gave a Bas (6 h) of 0%, an Eos (6 h) of 1.2% and a Fbg (6 h) of 208.2 mg/dL. For the same molecule, the Hb (6 h) was 13.4 g/dL, the Ht (6 h) was 40.7% and the Lym (6 h) was 61%. It also gave an MCH (6 h) of 21.4 pg, an MCHC (6 h) of 33% and an MCV (6 h) of 64.8 fL. For the same molecule, the Mono (6 h) was 8%, the Neu (6 h) was 30.2% and the PT (6 h) was 13.9 s. For the same molecule, the Plat (6 h) was 123.8 x10_4/uL, the RBC (6 h) was 627.6 x10_4/ul and the Ret (6 h) was 9.2%. It also gave a WBC (6 h) of 84.8 x10_2/uL, a KIDNEY_L (6 h) of 0.9 g and a KIDNEY_R (6 h) of 1 g. For the same molecule, the KIDNEY_TOTAL (6 h) was 1.9 g, the LIVER (6 h) was 8.6 g and the A/G (6 h) was 2.2. It also gave an ALP (6 h) of 925 IU/L, an ALT (6 h) of 73.2 IU/L and an AST (6 h) of 174 IU/L. The BUN (6 h) was 23 mg/dL, the CRE (6 h) was 0.7 mg/dL and the Ca (6 h) was 10.5 mg/dL. The Cl (6 h) was 106.4 meq/L, the DBIL (6 h) was 0.048 mg/dL and the GLC (6 h) was 168 mg/dL. For the same molecule, the IP (6 h) was 11.2 mg/dL, the K (6 h) was 4.4 meq/L and the LDH (6 h) was 277.8 IU/L. For the same molecule, the Na (6 h) was 138.2 meq/L, the PL (6 h) was 110.4 mg/dL and the RALB (6 h) was 3.7 g/dL. The TBIL (6 h) was 1 mg/dL, the TC (6 h) was 67.2 mg/dL and the TG (6 h) was 24.4 mg/dL. The TP (6 h) was 5.5 g/dL, the gamma-GTP (6 h) was 1.4 IU/L and the TERMINAL_BW (9 h) was 210.1 g. The APTT (9 h) was 17.1 s, the Bas (9 h) was 0% and the Eos (9 h) was 1%. For the same molecule, the Fbg (9 h) was 209.8 mg/dL, the Hb (9 h) was 13.4 g/dL and the Ht (9 h) was 40.7%. For the same molecule, the Lym (9 h) was 56.4%, the MCH (9 h) was 21.6 pg and the MCHC (9 h) was 33%. It also gave an MCV (9 h) of 65.4 fL, a Mono (9 h) of 8% and a Neu (9 h) of 35%. For the same molecule, the PT (9 h) was 13.9 s, the Plat (9 h) was 123.6 x10_4/uL and the RBC (9 h) was 622.2 x10_4/ul. It also gave a Ret (9 h) of 10.3%, a WBC (9 h) of 125.6 x10_2/uL and a KIDNEY_L (9 h) of 1 g. The KIDNEY_R (9 h) was 1 g, the KIDNEY_TOTAL (9 h) was 2 g and the LIVER (9 h) was 8.3 g. It also gave an A/G (9 h) of 2.1, an ALP (9 h) of 915.4 IU/L and an ALT (9 h) of 60.2 IU/L. For the same molecule, the AST (9 h) was 166.6 IU/L, the BUN (9 h) was 23.8 mg/dL and the CRE (9 h) was 0.6 mg/dL. For the same molecule, the Ca (9 h) was 10.9 mg/dL, the Cl (9 h) was 104.6 meq/L and the DBIL (9 h) was 0.06 mg/dL. The GLC (9 h) was 155.2 mg/dL, the IP (9 h) was 11.6 mg/dL and the K (9 h) was 4.1 meq/L. It also gave an LDH (9 h) of 257 IU/L, a Na (9 h) of 138.2 meq/L and a PL (9 h) of 107.4 mg/dL. It also gave an RALB (9 h) of 3.9 g/dL, a TBIL (9 h) of 0.8 mg/dL and a TC (9 h) of 71 mg/dL. The TG (9 h) was 38.6 mg/dL, the TP (9 h) was 5.8 g/dL and the gamma-GTP (9 h) was 1.2 IU/L. It also gave a TERMINAL_BW (24 h) of 201.7 g, an APTT (24 h) of 24.9 s and a Bas (24 h) of 0%. The Eos (24 h) was 0.4%, the Fbg (24 h) was 190.4 mg/dL and the Hb (24 h) was 14.1 g/dL. For the same molecule, the Ht (24 h) was 42.5%, the Lym (24 h) was 77% and the MCH (24 h) was 21.6 pg. The MCHC (24 h) was 33.1%, the MCV (24 h) was 65.1 fL and the Mono (24 h) was 3.2%. It also gave a Neu (24 h) of 19.4%, a PT (24 h) of 20 s and a Plat (24 h) of 121.3 x10_4/uL. It also gave an RBC (24 h) of 652.2 x10_4/ul, a Ret (24 h) of 7.6% and a WBC (24 h) of 140.6 x10_2/uL. The KIDNEY_L (24 h) was 1.1 g, the KIDNEY_R (24 h) was 1.1 g and the KIDNEY_TOTAL (24 h) was 2.1 g. The LIVER (24 h) was 9.4 g, the A/G (24 h) was 2.2 and the ALP (24 h) was 828.6 IU/L. It also gave an ALT (24 h) of 296.8 IU/L, an AST (24 h) of 1408.4 IU/L and a BUN (24 h) of 19.2 mg/dL. It also gave a CRE (24 h) of 0.5 mg/dL, a Ca (24 h) of 10.2 mg/dL and a Cl (24 h) of 110.6 meq/L. The DBIL (24 h) was 0.2 mg/dL, the GLC (24 h) was 167.2 mg/dL and the IP (24 h) was 8.4 mg/dL. It also gave a K (24 h) of 3.9 meq/L, an LDH (24 h) of 4785 IU/L and a Na (24 h) of 139.2 meq/L. It also gave a PL (24 h) of 97.6 mg/dL, an RALB (24 h) of 3.7 g/dL and a TBIL (24 h) of 0.6 mg/dL. The TC (24 h) was 56.8 mg/dL, the TG (24 h) was 23.2 mg/dL and the TP (24 h) was 5.4 g/dL. The gamma-GTP (24 h) was 0.8 IU/L.
